Measurements taken from article PMC4871627 (Journal of medicinal chemistry, 2016).

Key:
HIV RT polymerase = HIV RT polymerase (Human immunodeficiency virus type 1 group M subtype B, UniProt P04585); assay type: biochemical, HIV-1; conditions: RNase H with HTS-1 as substrate
HIV integrase = HIV integrase (Human immunodeficiency virus type 1 group M subtype B, UniProt P04585); assay: HIV IN strand transfer; assay type: biochemical, HIV-1; conditions: INST IC50, tested 0.13-100 µM

SMILES	SI (IC50 RT pol / IC50 RNase H) (HIV RT polymerase)	IC50 (HIV integrase) [nM]
Cc1ccc(-c2ccc(Nc3cc(=O)n(O)c(=O)[nH]3)cc2)cc1 [11b, 3-Hydroxy-6-((4'-methyl-[1,1'-biphenyl]-4-yl)amino)pyrimidine-2,4(1H,3H)-dione]	5.7 (14)	
COc1cccc(OC)c1-c1cccc(Nc2cc(=O)n(O)c(=O)[nH]2)c1 [11m, 6-((2',6'-Dimethoxy-[1,1'-biphenyl]-3-yl)amino)-3-hydroxypyrimidine-2,4(1H,3H)-dione]		1200 to 1300
COc1ccc(-c2cccc(Nc3cc(=O)n(O)c(=O)[nH]3)c2)cc1 [11j, 3-Hydroxy-6-((4'-methoxy-[1,1'-biphenyl]-3-yl)amino)pyrimidine-2,4(1H,3H)-dione]	6.3 (32)	> 100000
COc1ccc(-c2cccc(Nc3cc(=O)n(O)c(=O)[nH]3)c2)c(OC)c1 [11l, 6-((2',4'-Dimethoxy-[1,1'-biphenyl]-3-yl)amino)-3-hydroxypyrimidine-2,4(1H,3H)-dione]		1200 to 1300
O=c1cc(Nc2cccc(-c3ccc(F)cc3)c2)[nH]c(=O)n1O [11o, 6-((4'-Fluoro-[1,1'-biphenyl]-3-yl)amino)-3-hydroxypyrimidine-2,4(1H,3H)-dione]	6.6 (33)	> 100000
